From PMC2858063 (Steroids, 2010)

Biological target: T1, hu-mPRα (Homo sapiens, UniProt Q86WK9)
T1 sequence (Q86WK9 1-346): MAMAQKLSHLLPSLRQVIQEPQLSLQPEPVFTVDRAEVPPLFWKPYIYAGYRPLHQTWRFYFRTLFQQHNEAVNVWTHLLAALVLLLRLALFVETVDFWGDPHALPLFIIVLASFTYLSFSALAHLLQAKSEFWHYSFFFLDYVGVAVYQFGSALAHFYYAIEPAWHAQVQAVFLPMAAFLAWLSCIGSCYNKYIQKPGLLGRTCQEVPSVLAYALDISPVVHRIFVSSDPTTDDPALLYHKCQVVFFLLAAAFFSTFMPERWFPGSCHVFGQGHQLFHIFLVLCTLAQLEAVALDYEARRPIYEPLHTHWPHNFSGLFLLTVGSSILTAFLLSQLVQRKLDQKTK
Assay: hu-mPRα steroid binding assay
Settings: for RBA (Relative Binding Affinity): compared with progesterone (=100), human mPRα; for binding to hu-mPRα (in words): this study, Fig. 1, Table 1

Row | Compound | RBA (Relative Binding Affinity) [%] | IC50 [nM] | binding to hu-mPRα (in words) | decrease in binding relative to testosterone (mPRα, compared with testosterone of ref 10) [fold]
1 | CC(=O)S[C@@H]1CC2=CC(=O)CC[C@]2(C)[C@H]2CC[C@]3(C)[C@@H](C(C)=O)CC[C@H]3[C@H]12 [7α-Acetylthioprogesterone (Org 33718-0), 7α-Acetylthioprogesterone] | <1 |  |  | 
2 | CC(=O)[C@H]1CC[C@H]2[C@@H]3CC[C@H]4C[C@H](O)CC[C@]4(C)[C@H]3CC[C@]12C [3α-Hydroxy-5α-pregnan-20-one] | 7.6 | 1150 |  | 
3 | CC(=O)[C@H]1CC[C@H]2[C@@H]3CCC4=CC(=O)[C@H](C#N)C[C@]4(C)[C@H]3CC[C@]12C [3,20-Dioxopregn-4-ene-2α-carbonitrile] | <1 |  | inactivity | 
4 | CCCCCC(=O)O[C@]1(C(C)=O)CC[C@H]2[C@@H]3CCC4=CC(=O)CC[C@]4(C)[C@H]3CC[C@@]21C [17-Caproylprogesterone] | 4.4 |  |  | 
5 | C[C@@H]1C=C2CC(=O)CC[C@]2(C)[C@H]2CC[C@]3(C)[C@@H](O)CC[C@H]3[C@H]12 [17β-Hydroxy-7α-methylandrost-5-en-3-one] | 3.0 | 2880 |  | 10
6 | C[C@]12CCC(=O)C=C1CC[C@@H]1[C@@H]2CC[C@@]2(C)[C@H]1CC[C@]2(O)C(=O)CO [Cortexolone (11-deoxycortisol), 11-deoxycortisol] | 1.8 | 4850 | less potent than deoxycorticosterone | 
7 | 3,20-dioxopregn-4-ene-18-carbonitrile | 1.8 |  | low binding affinities | 
8 | CC(=O)[C@H]1CC[C@H]2[C@@H]3CC[C@H]4C[C@@H](O)CC[C@]4(C)[C@H]3CC[C@]12C [3β-Hydroxy-5α-pregnan-20-one] |  |  | absence of binding | 
9 | C[C@]12CCC(=O)C=C1CC[C@@H]1[C@@H]2[C@@H](O)C[C@@]2(C)[C@H]1CC[C@]2(O)C(=O)CO [Cortisol (hydrocortisone), Cortisol] |  |  | complete loss of affinity | 
10 | C[C@]12CC[C@H]3[C@@H](CCC4=CC(=O)CC[C@@]43C)[C@@H]1CC[C@H]2O [17-Epitestosterone] | 2.8 |  |  | 
11 | CC(=O)[C@H]1CC[C@H]2[C@@H]3C=CC4=CC(=O)CC[C@]4(C)[C@H]3CC[C@]12C [Pregna-4,6-diene-3,20-dione] | 98.9 | 88.4 | little or no influence relative to the progesterone response | 
12 | CC(=O)[C@H]1CC[C@H]2[C@@H]3CCC4=CC(=O)CC[C@]4(CO)[C@H]3CC[C@]12C [19-Hydroxyprogesterone] | 0.7 |  | low binding affinities | 
13 | CC(=O)[C@H]1CC[C@H]2[C@@H]3CCC4=CC(=O)CC[C@]4(C)[C@H]3CC[C@]12C [Progesterone] |  | 87.4 |  | 
14 | C[C@]12CC[C@@H]3c4ccc(O)cc4CC[C@H]3[C@@H]1CC[C@@H]2O [Estradiol-17β] |  |  | no binding affinity | 
15 | CC(=O)[C@H]1CC[C@H]2[C@@H]3CCC4=CC(=O)C=C[C@]4(C)[C@H]3CC[C@]12C [Pregna-1,4-diene-3,20-dione] | 93.5 | 93.5 | little or no influence relative to the progesterone response | 
